Assay results reported in the NIST ThermoML archive (doi:10.1021/je3011979).

Columns and labels:
[1] = xn = mol fraction of the nth substance listed; conditions: 101 kPa, Liquid, Vibrating tube method
[2] = excess molar enthalpy (molar enthalpy of mixing); xn = mol fraction of the nth substance listed; conditions: 291.15 K, 101 kPa, Liquid, Calvet calorimetry

CCCOC(C)=O [propyl ethanoate] + CCCCCCC
[1]
Conditions	mass density [kg/m3]
291.15 K, x1 = 0.0086	686.6
291.15 K, x1 = 0.032	690.1
291.15 K, x1 = 0.0864	698.2
291.15 K, x1 = 0.1706	711.3
291.15 K, x1 = 0.2573	725.7
291.15 K, x1 = 0.3308	738.6
291.15 K, x1 = 0.3974	750.9
291.15 K, x1 = 0.4644	763.7
291.15 K, x1 = 0.5398	778.9
291.15 K, x1 = 0.6055	792.8
291.15 K, x1 = 0.6723	807.4
291.15 K, x1 = 0.7257	819.6
291.15 K, x1 = 0.8	837.2
291.15 K, x1 = 0.8457	848.5
291.15 K, x1 = 0.9057	864
291.15 K, x1 = 0.9708	881.6
291.15 K, x1 = 1	889.6
298.15 K, x1 = 0.0149	681.8
298.15 K, x1 = 0.0308	684
298.15 K, x1 = 0.0953	693.5
298.15 K, x1 = 0.168	704.8
298.15 K, x1 = 0.2358	715.8
298.15 K, x1 = 0.3084	728.2
298.15 K, x1 = 0.375	740.2
298.15 K, x1 = 0.4386	752.1
298.15 K, x1 = 0.5062	765.3
298.15 K, x1 = 0.5643	777.2
298.15 K, x1 = 0.6488	795.2
298.15 K, x1 = 0.6684	799.5
298.15 K, x1 = 0.7446	816.9
298.15 K, x1 = 0.793	828.4
298.15 K, x1 = 0.8688	847.3
298.15 K, x1 = 0.91	858
298.15 K, x1 = 0.9508	868.8
298.15 K, x1 = 1	882.5
318.15 K, x1 = 0.0291	666.1
318.15 K, x1 = 0.0843	673.9
318.15 K, x1 = 0.1595	685.1
318.15 K, x1 = 0.23	696.3
318.15 K, x1 = 0.2972	707.3
318.15 K, x1 = 0.3638	718.8
318.15 K, x1 = 0.4295	730.8
318.15 K, x1 = 0.4902	742.3
318.15 K, x1 = 0.553	754.6
318.15 K, x1 = 0.6057	765.4
318.15 K, x1 = 0.6734	779.8
318.15 K, x1 = 0.726	791.4
318.15 K, x1 = 0.7727	802.1
318.15 K, x1 = 0.7949	807.7
318.15 K, x1 = 0.8645	824.4
318.15 K, x1 = 0.9242	839.3
318.15 K, x1 = 1	859.8
328.15 K, x1 = 0.0373	658.5
328.15 K, x1 = 0.0866	665.4
328.15 K, x1 = 0.1645	676.8
328.15 K, x1 = 0.2401	688.6
328.15 K, x1 = 0.3096	700
328.15 K, x1 = 0.3783	711.8
328.15 K, x1 = 0.4478	724.3
328.15 K, x1 = 0.5142	736.8
328.15 K, x1 = 0.5756	748.9
328.15 K, x1 = 0.6377	761.7
328.15 K, x1 = 0.6884	772.5
328.15 K, x1 = 0.756	787.5
328.15 K, x1 = 0.8074	799.5
328.15 K, x1 = 0.856	811.2
328.15 K, x1 = 0.9097	824.7
328.15 K, x1 = 0.9638	838.7
328.15 K, x1 = 1	848.3

[2]
Conditions	excess molar enthalpy [kJ/mol]
x1 = 0.0996	0.436
x1 = 0.2001	0.756
x1 = 0.2956	1.001
x1 = 0.3852	1.14
x1 = 0.4642	1.192
x1 = 0.5309	1.195
x1 = 0.588	1.149
x1 = 0.638	1.073
x1 = 0.656	1.046
x1 = 0.7113	0.948
x1 = 0.7717	0.81
x1 = 0.8326	0.639
x1 = 0.8942	0.437
x1 = 0.9501	0.226
